Measurements as given in US20240043407A1, “CRYSTALLINE FORM I OF MELANOCORTIN RECEPTOR AGONIST COMPOUND AND METHOD FOR PREPARING SAME” (LG CHEM, LTD., priority 2020, published 2024).

Legend:
Assay type in all cases: physicochemical
[1] = Stability assessment by HPLC after storage; settings: for HPLC content, Accelerated condition (40° C./75% RH): open state; for HPLC content, Accelerated condition (40° C./75% RH) / HPLC content, Harsh condition (80° C.): in % (unit assumed); for HPLC content, Harsh condition (80° C.): sealed state, oven 80° C.
Description: About 10-30 mg of the sample was stored for 4 weeks in an open state under the accelerated condition (40° C., 75% RH) or in a sealed state under the harsh condition in an oven at 80° C. [table]

[2] = Dynamic vapor sorption (DVS) analysis
Description: DVS was measured using automated gravimetric vapor sorption analyzer equipped with Cahn D200 ultra-microbalance (DVS Intrinsic apparatus, Surface Measurement System Ltd., UK). First, a sample of 10-20 mg was put in a sample pan and hung on a hang-down wire, and measurement was started when the weight and humidity reached equilibrium. In one cycle, relative humidity was increased from 0% to 90% and then dropped back to 0%. Two cycles were carried out. The experiment was carried out in a way that the relative humidity was increased at 10% increment using a dm/dt method. The experiment was carried out at room temperature (25° C.)

[3] = Thermogravimetric analysis (TGA)
Description: The TGA was measured using Mettler Toledo TGA/DSC 1 module. About 4-8 mg of the sample is weighed and put into a 100 μL Al crucible (flat-bottomed aluminum crucibles). Then, TGA measurement is performed while the sample is heated from 30° C. to 350° C. at a rate of 10° C./min. During the measurement, nitrogen gas is supplied to the inside of the instrument at a rate of 80 mL/min to prevent the inflow of oxygen and other gases. Data collection and evaluation were performed using the software STARe.

For `CC(C)C(=O)N([C@H]1C[C@@H](C(=O)N2CCOCC2)N(C(=O)[C@@H]2CN(C(C)(C)C)C[C@H]2c2ccc(Cl)cc2)C1)[C@H]1CC[C@@H](C)CC1` [Example 1, N-((3S,5S)-1-((3S,4R)-1-(tert-butyl)-4-(4-chlorophenyl)pyrrolidine-3-carbonyl)-5-(morpholine-4-carbonyl)pyrrolidin-3-yl)-N-((1s,4R)-4-methylcyclohexyl)isobutyramide], the “chemical stability” value ([1]; accelerated (40° C., 75% RH) and harsh (80° C.) condition, 4 weeks) was “showed chemical stability for 4 weeks”, the “decrease in the content until week 4” value ([1]; accelerated condition (40° C., 75% RH) and closed state (harsh condition, 80° C.), until week 4) was “about 1.3%” and the “decrease in the content under the accelerated condition” value ([1]; accelerated condition, for 4 weeks) was “less than 1%”. For the same molecule, the HPLC content, Initial ([1]; initial, before storage) was 97.8%, the “HPLC content, Accelerated condition (40° C./75% RH)” value (shortened to “HPLC content … (40° C./75% RH)”) ([1]; Day 3) was 97.51 and the “HPLC content … (40° C./75% RH)” value ([1]; Week 1) was 96.64. For the same molecule, the “HPLC content … (40° C./75% RH)” value ([1]; Week 2) was 97.73, the “HPLC content … (40° C./75% RH)” value ([1]; Week 4) was 97.47 and the “HPLC content, Harsh condition (80° C.)” value ([1]; Day 3) was 97.46. The “HPLC content, Harsh condition (80° C.)” value ([1]; Week 1) was 97.34, the “HPLC content, Harsh condition (80° C.)” value ([1]; Week 2) was 96.94 and the “HPLC content, Harsh condition (80° C.)” value ([1]; Week 4) was 96.47. For the same molecule, the “total weight gain observed between 0-90% RH” value ([2]; DVS, 25° C., 0-90% RH, two cycles) was 0.2 % w/w, the “physical change after DVS (XRPD pattern compared with initial compound)” value ([2]; XRPD after DVS analysis) was “no physical change occurred” and the “temperature up to which thermally stable” value ([3]; TGA, error of ±5° C.) was “up to 270 °C”. The “weight loss in TGA before degradation” value ([3]; heated from 30° C. to 350° C. at 10° C./min) was “no weight loss was observed before degradation”.
